# Calls of active or inactive are those of the source. The calls are words filed in the database; no cut-off is given here.
# Assays:
# [1] = Drug distribution in SCID mouse liver at 1 mg/kg, po measured at 24 hrs by LC-MS/MS analysis; format: ADME, organism-based; conditions: read-out: Ct
# [2] = Plasma protein binding in dog by LC-MS analysis; format: ADME, cell-free, Canis lupus familiaris; conditions: read-out: PPB (converted)
# [3] = Toxicity in immune-competent Sprague-Dawley rat assessed as change in calcium level at 1 to 10 mg/kg, po administered twice a week for 5 weeks; format: organism-based; conditions: in vivo, 840 h, dose 1-10 mg/kg
# [4] = Metabolic stability in monkey plasma assessed as half life measured upto 120 mins by LC-MS/MS analysis; format: ADME, cell-free, Macaca mulatta; conditions: rhesus monkey
# [5] = Chemical stability of the compound assessed as parent compound remaining measured at 3 hrs; format: physicochemical
# [6] = Drug concentration in SCID mouse tumor at 1 mg/kg, po measured at 24 hrs by LC-MS/MS analysis; format: ADME, organism-based, Neoplasm; conditions: read-out: Ct
# [7] = Drug distribution in Sprague-Dawley rat kidney at 3 mg/kg, po measured at 1 hr by LC-MS/MS analysis; format: ADME, organism-based; conditions: read-out: Ct
# [8] = molecular target: Cytochrome P450 2C19 (Homo sapiens, UniProt P33261); experiment: Inhibition of CYP2C19 (unknown origin) preincubated with compound for 5 mins followed by NADPH addition and measured after 45 mins by LC-MS/MS analysis; format: ADME
# [9] = Toxicity in female BALB/c mouse assessed as effect on body weight loss at 3 to 10 mg/kg, po administered twice a week for 5 to 6 weeks; format: organism-based; conditions: in vivo, dose lower 3 mg/kg, time lower 5 weeks, dose upper 10 mg/kg, time upper 6 weeks
# [10] = Drug concentration in SCID mouse tumor at 1 mg/kg, po measured at 6 hrs by LC-MS/MS analysis; format: ADME, organism-based, Neoplasm; conditions: read-out: Ct
# [11] = Drug distribution in Sprague-Dawley rat heart at 10 mg/kg, po measured at 1 hr by LC-MS/MS analysis; format: ADME, organism-based; conditions: read-out: Ct
# [12] = Drug concentration in SCID mouse plasma at 1 mg/kg, po measured at 6 hrs by LC-MS/MS analysis; format: ADME, organism-based
# [13] = Drug concentration in SCID mouse plasma at 1 mg/kg, po measured at 1 hr by LC-MS/MS analysis; format: ADME, organism-based
# [14] = Drug distribution in Sprague-Dawley rat heart at 3 mg/kg, po measured at 1 hr by LC-MS/MS analysis; format: ADME, organism-based; conditions: read-out: Ct
# [15] = Toxicity in male BALB/c mouse assessed as body weight loss at 30 mg/kg, po administered twice a week for 5 to 6 weeks; format: organism-based; conditions: in vivo, time 5-6 weeks
# [16] = Metabolic stability in rat plasma assessed as half life measured upto 120 mins by LC-MS/MS analysis; format: ADME, cell-free
# [17] = Drug distribution in Sprague-Dawley rat plasma at 10 mg/kg, po measured at 1 hr by LC-MS/MS analysis; format: ADME, organism-based
# [18] = Drug distribution in SCID mouse tumor at 3 mg/kg, po measured at 1 hr by LC-MS/MS analysis; format: ADME, organism-based, Neoplasm; conditions: read-out: Ct
# [19] = Plasma protein binding in human by LC-MS analysis; format: ADME, cell-free; conditions: read-out: PPB (converted)
# [20] = Volume of distribution at steady state in Sprague-Dawley rat at 1 mg/kg, iv measured upto 24 hrs by LC/MS-MS analysis; format: ADME, organism-based; conditions: in vivo, read-out: Vdss
# [21] = Drug concentration in SCID mouse tumor at 1 mg/kg, po measured at 1 hr by LC-MS/MS analysis; format: ADME, organism-based, Neoplasm; conditions: read-out: Ct
# [22] = Drug distribution in Sprague-Dawley rat kidney at 3 mg/kg, po measured at 24 hrs by LC-MS/MS analysis; format: ADME, organism-based; conditions: read-out: Ct
# [23] = Oral bioavailability in ICR mouse at 3 mg/kg measured upto 24 hrs by LC/MS-MS analysis; format: ADME, organism-based; conditions: in vivo
# [24] = Drug distribution in SCID mouse spleen at 1 mg/kg, po measured at 24 hrs by LC-MS/MS analysis; format: ADME, organism-based; conditions: read-out: Ct
# [25] = test system: CWR22R; experiment: Antitumor activity against human 22Rv1 cells xenografted in SCID mouse assessed as tumor growth inhibition at 1 mg/kg, po administered 5 times a week for 3 weeks; format: functional; conditions: 22Rv1, 504 h, read-out: TGI
# [26] = test system: VCaP; experiment: Antitumor activity against human VCaP cells xenografted in SCID mouse assessed as tumor growth inhibition at 3 mg/kg, po administered for 4 week; format: functional; conditions: 672 h, time 4 weeks, read-out: TGI
# [27] = Drug distribution in Sprague-Dawley rat spleen at 10 mg/kg, po measured at 1 hr by LC-MS/MS analysis; format: ADME, organism-based; conditions: read-out: Ct
# [28] = Drug distribution in SCID mouse plasma at 1 mg/kg, po measured at 6 hrs by LC-MS/MS analysis; format: ADME, organism-based
# [29] = Toxicity in immune-competent Sprague-Dawley rat assessed as change in eosinophil at 1 to 10 mg/kg, po administered twice a week for 5 weeks; format: organism-based; conditions: in vivo, 840 h, dose 1-10 mg/kg
# [30] = Drug distribution in SCID mouse liver at 0.3 mg/kg, po measured at 24 hrs by LC-MS/MS analysis; format: ADME, organism-based; conditions: read-out: Ct
# [31] = Drug distribution in Sprague-Dawley rat spleen at 3 mg/kg, po measured at 1 hr by LC-MS/MS analysis; format: ADME, organism-based; conditions: read-out: Ct
# [32] = test system: CWR22R; experiment: Antitumor activity against human 22Rv1 cells xenografted in SCID mouse assessed as reduction in BRD3 level in tumor at 1 to 3 mg/kg, po measured at 6 to 24 hrs by Western blotting analysis; format: functional, organism-based; conditions: dose 1-3 mg/kg, time 6-24 hrs
# [33] = Drug distribution in Sprague-Dawley rat liver at 10 mg/kg, po measured at 1 hr by LC-MS/MS analysis; format: ADME, organism-based; conditions: read-out: Ct
# [34] = test system: CWR22R; experiment: Antitumor activity against human 22Rv1 cells xenografted in SCID mouse assessed as tumor growth inhibition at 0.3 mg/kg, po administered 5 times a week for 3 weeks; format: functional; conditions: 22Rv1, 504 h, read-out: TGI
# [35] = molecular target: Cytochrome P450 3A4 (Homo sapiens, UniProt P08684); experiment: Inhibition of CYP3A4 (unknown origin) using midazolam as substrate preincubated with compound for 5 mins followed by NADPH addition and measured after 20 mins by LC-MS/MS analysis; format: ADME
# [36] = Half life in ICR mouse at 1 mg/kg, iv measured upto 24 hrs by LC/MS-MS analysis; format: ADME, organism-based; conditions: in vivo
# [37] = Drug distribution in SCID mouse tumor at 3 mg/kg, po measured at 6 hrs by LC-MS/MS analysis; format: ADME, organism-based, Neoplasm; conditions: read-out: Ct
# [38] = Drug distribution in Sprague-Dawley rat plasma at 3 mg/kg, po measured at 1 hr by LC-MS/MS analysis; format: ADME, organism-based
# [39] = Cmax in Sprague-Dawley rat at 3 mg/kg, po measured upto 24 hrs by LC/MS-MS analysis; format: ADME, organism-based; conditions: in vivo
# [40] = Volume of distribution at steady state in ICR mouse at 1 mg/kg, iv measured upto 24 hrs by LC/MS-MS analysis; format: ADME, organism-based; conditions: in vivo
# [41] = Plasma protein binding in mouse by LC-MS analysis; format: ADME, cell-free; conditions: read-out: PPB (converted)
# [42] = Drug distribution in SCID mouse spleen at 3 mg/kg, po measured at 24 hrs by LC-MS/MS analysis; format: ADME, organism-based; conditions: read-out: Ct
# [43] = Oral bioavailability in Sprague-Dawley rat at 3 mg/kg measured upto 24 hrs by LC/MS-MS analysis; format: ADME, organism-based; conditions: in vivo
# Chain of Cytochrome P450 2C19 (P33261 whole entry): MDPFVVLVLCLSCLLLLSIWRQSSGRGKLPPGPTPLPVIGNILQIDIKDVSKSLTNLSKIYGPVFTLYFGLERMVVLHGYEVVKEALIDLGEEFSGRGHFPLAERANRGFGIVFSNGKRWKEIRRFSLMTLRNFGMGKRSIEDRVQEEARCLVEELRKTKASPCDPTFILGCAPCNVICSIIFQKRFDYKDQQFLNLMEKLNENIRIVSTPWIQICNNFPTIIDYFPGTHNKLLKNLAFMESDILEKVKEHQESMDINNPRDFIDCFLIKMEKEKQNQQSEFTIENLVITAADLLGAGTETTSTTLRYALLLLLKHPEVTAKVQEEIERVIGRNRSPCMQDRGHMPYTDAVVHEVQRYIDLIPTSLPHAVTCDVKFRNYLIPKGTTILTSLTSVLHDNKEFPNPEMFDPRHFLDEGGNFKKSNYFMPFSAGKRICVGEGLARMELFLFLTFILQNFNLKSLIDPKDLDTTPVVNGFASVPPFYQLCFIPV
# Chain of Cytochrome P450 3A4 (P08684 whole entry): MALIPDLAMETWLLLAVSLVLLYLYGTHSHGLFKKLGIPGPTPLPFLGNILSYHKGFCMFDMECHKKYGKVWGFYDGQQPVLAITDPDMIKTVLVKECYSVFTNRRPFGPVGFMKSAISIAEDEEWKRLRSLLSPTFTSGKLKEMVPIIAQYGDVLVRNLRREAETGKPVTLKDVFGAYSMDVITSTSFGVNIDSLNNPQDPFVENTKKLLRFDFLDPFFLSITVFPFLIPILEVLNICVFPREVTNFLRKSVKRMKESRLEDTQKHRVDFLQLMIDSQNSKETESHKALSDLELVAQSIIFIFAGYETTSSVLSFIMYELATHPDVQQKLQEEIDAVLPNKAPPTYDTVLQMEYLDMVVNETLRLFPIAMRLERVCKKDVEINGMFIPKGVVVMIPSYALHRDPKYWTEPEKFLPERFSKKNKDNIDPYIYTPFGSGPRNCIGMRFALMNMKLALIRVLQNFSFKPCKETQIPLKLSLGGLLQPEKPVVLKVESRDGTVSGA
smiles,measurement,setting,value
CC(=O)N1CCc2c(c(N3CCCc4cc(-c5cnn(C)c5)c(C(F)F)cc43)nn2[C@H]2CC[C@H](CN3Cc4cc5c(cc4C3)C(=O)N(C3CCC(=O)NC3=O)C5=O)CC2)C1 (stereo partly drawn),concentration at 24 h,[1],13.7 ng/mL
same,fraction unbound,[2],0.009
same,Activity,[3],Non-Toxic
same,half-life,[4],> 2 h
same,Stability,[5],Stable
same,concentration at 24 h,[6],6.3 ng/g
same,concentration at 1 h,[7],514 ng/g
same,IC50,[8],> 10 µM
same,Activity,[9],Non-Toxic
same,concentration at 6 h,[10],12.6 ng/g
same,concentration at 1 h,[11],638 ng/g
same,concentration at 6 h,[12],14.1 ng/mL
same,concentration at 1 h,[13],141 ng/mL
same,concentration at 1 h,[14],246 ng/g
same,Activity,[15],< 5%
same,half-life,[16],0.8 h
same,concentration at 1 h,[17],321 ng/mL
same,concentration at 1 h,[18],249 ng/g
same,fraction unbound,[19],0.009
same,Vd,[20],4.9 L/kg
same,concentration at 1 h,[21],30.8 ng/g
same,concentration at 24 h,[22],2.1 ng/g
same,bioavailability,[23],60%
same,concentration at 24 h,[24],2.8 ng/mL
same,inhibition in vivo at 1 mg/kg,[25],75%
same,inhibition in vivo at 3 mg/kg,[26],57%
same,concentration at 1 h,[27],1990 ng/g
same,concentration at 6 h,[28],43.2 ng/mL
same,Activity,[29],Non-Toxic
same,concentration at 24 h,[30],5.6 ng/mL
same,concentration at 1 h,[31],832 ng/g
same,Activity,[32],Active
same,concentration at 1 h,[33],4100 ng/g
same,inhibition in vivo at 0.3 mg/kg,[34],56%
same,IC50,[35],> 10 µM
same,t1/2,[36],3.4 h
same,concentration at 6 h,[37],294 ng/g
same,concentration at 1 h,[38],109 ng/mL
same,Cmax,[39],221 ng/mL
same,Vdss,[40],4.9 L/kg
same,fraction unbound,[41],0.016
same,concentration at 24 h,[42],21.2 ng/mL
same,bioavailability,[43],67%

# Reference: ChEMBL document CHEMBL5543112, “Discovery of CBPD-268 as an Exceptionally Potent and Orally Efficacious CBP/p300 PROTAC Degrader Capable of Achieving Tumor Regression” (J Med Chem, 2024)
